# Columns and labels:
# [1] = target: T1, serine hydroxymethyltransferase (SHMT) (Oryctolagus cuniculus, UniProt P07511); assay: Conversion of aldehyde substrates and glycine to β-hydroxy-α-amino acids by SHMT (HPLC assay); assay type: biochemical, rabbit; set-up: key: + = conversion; - = no detectable conversion
# T1 construct: Three such sources are rabbit liver (LaVerne Schirch and Merle Mason, J. Biol. Chem., Vol. 237, No. 8, August 1962); from tissue; host or cells: rabbit liver
# T1 sequence (P07511 2-484 limits assumed): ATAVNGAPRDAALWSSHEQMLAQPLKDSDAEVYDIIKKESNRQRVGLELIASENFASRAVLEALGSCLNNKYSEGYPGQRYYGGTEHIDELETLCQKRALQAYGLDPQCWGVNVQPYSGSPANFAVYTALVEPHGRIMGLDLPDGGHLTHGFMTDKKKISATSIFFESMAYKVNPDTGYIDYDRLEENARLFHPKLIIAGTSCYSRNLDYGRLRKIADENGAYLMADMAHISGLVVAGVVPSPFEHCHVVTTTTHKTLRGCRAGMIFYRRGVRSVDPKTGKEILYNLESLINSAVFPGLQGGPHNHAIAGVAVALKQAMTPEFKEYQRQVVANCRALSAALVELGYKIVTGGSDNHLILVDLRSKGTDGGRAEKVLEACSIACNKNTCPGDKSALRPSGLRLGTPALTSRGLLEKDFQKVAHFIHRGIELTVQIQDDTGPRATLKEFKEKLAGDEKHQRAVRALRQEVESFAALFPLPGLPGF
# Experimental: (§1) The following Table 1 lists representative aldehyde substrates which were converted in the process to β-hydroxy-α-amino acids with SHMT from two sources. The conversion of the substrates in Table 1 was carried out by incubating the substrate and glycine with SHMT under the conditions of the process. A number of the process conditions used were common to all of the substrates and are detailed in the following paragraphs. Wherever exceptions occurred they are noted in each instance.
# (§2) The incubations were carried out in 10 mM phosphate buffer, pH 7.3 containing pyridoxal 5′-phosphate at a concentration of about 80 µM. All solutions were prepared from distilled, deionized water for best results. The conversions were carried out at about 37°C in sealed, 500 µL polypropylene micro-centrifuge vials in a constant-temperature water bath. The vials were protected from light except when removed from the water bath for removal of aliquots for analysis. With all conversions an enzyme blank incubation was carried out in parallel with the SHMT incubation. The total volume of the incubation mixture was typically about 200 µL. The conditions in the blank were identical to those of the incubation mixture except for the absence of the enzyme.
# (§3) The process can be monitored for production of the β-hydroxy-α-amino acid by removing aliquots from the incubation mixture from time to time and assaying the samples by HPLC separation and fluorescence detection of o-phthalaldehyde derived isoindoles of all primary amine compounds present in the mixture. The assay procedure is described by Jones, B.N.; Gilligan, J. P., J. Chrom. 1983, 266, 471; Jones, B. N. et al., J. Liq. Chrom. 1981, 4,565, and Simons, Jr., S. S. et al., J. Am Chem. Soc. 1976, 98, 7098. HPLC analysis of both the incubation mixture and the enzyme blank allowed determination of which peak(s) on the chromatograms could be assigned to enzyme products.
# [2] = tested on: serine hydroxymethyltransferase (SHMT); assay: as above; assay type: biochemical, corn; set-up: key: + = conversion; - = no detectable conversion
# Experimental: as §1, §2, §3
# All of the following procedures were carried out at 4°C. Washed 5-7 day old corn seedlings were homogenized in a Waring blender in 100 mM potassium monohydrogen phosphate containing 1 mM disodium ethylenediaminetetraacetate (EDTA), 1 mM dithiothreitol, and 125 µM of pyridoxal 5'-phosphate. The mix contained approximately 960 g of seedlings per liter. The homogenate was filtered through cheese cloth and the filtrate was subjected to ammonium sulfate precipitation. The protein which precipitated with 35-50% saturation in ammonium sulfate upon centrifuging at 13,800 x g for 40 min. was dissolved in 10 mM phosphate buffer, pH 7.8, containing […] pyridoxal 5'-phosphate and 1 mM EDTA. The solution was dialyzed and concentrated to 5-15 mg of protein/ml in the same buffer without EDTA present. Assay for aldolase activity of the protein consisted of a coupled system between the aldolase-catalyzed retroaldol of L-allo-threonine with the NADH (reduced form of nicotinamide adenine dinucleotide) dependent reduction of the resulting acetaldehyde by yeast alcohol dehydrogenase (ADH). Specific activity averaged 78 milliunits/mg of protein. One unit of enzyme activity is defined as that amount of enzyme required to cause a change of one optical density unit (at 340 nm) per minute at room temperature in the presence of ADH, 120 mM L-allo-threonine, 125 µM PLP, and 120 µM NADH in 100 mM phosphate buffer, pH 7.5.
# [3] = incubation with glycine, 10 mM phosphate buffer pH 7.3, pyridoxal 5′-phosphate about 80 µM, about 37°C
Structure (SMILES),"Aldehyde (RCHO) Substrates for SHMT, Enzyme Rabbit Liver [1, 3]","Aldehyde (RCHO) Substrates for SHMT, Enzyme Corn Seedlings [2, 3]","Aldehyde (RCHO) Substrates for SHMT, Enzyme Rabbit Liver ([1]; as the other substrates, but VO3- (metavanadate) was present)","Aldehyde (RCHO) Substrates for SHMT, Enzyme Corn Seedlings ([2]; as the other substrates, but tetrahydrofolate was present)"
"COC(=O)CCCC=O [-CH2CH2CH2CO2CH3, Glutaric semialdehyde methyl ester]",+,+,,
"CCC=O [-CH2CH3, propionaldehyde]",,+,,
O=CC(=O)O [-CO2H],-,-,,
"COC(=O)CCC=O [-CH2CH2CO2CH3, succinic semialdehyde methyl ester]",+,+,,
"O=Cc1ccccc1 [Example C6H5, benzaldehyde]",+,-,,
O=CCOCc1ccccc1 [-CH2OCH2C6H5],,+,,
"CCCC=O [-CH2CH2CH3, n-butanal]",+,,,
"CC=O [-CH3, acetaldehyde]",+,+,,
"O=Cc1ccco1 [Example 2-furyl, 2-furfural]",+,+,,
"CC(C)OC(=O)CCC=O [-CH2CH2CO2(CH3)2, succinic semialdehyde isopropyl ester]",+,,,
"CC(=O)C=O [-C(O)CH3, pyruvaldehyde]",,,+,+
"O=CCCCOC=O [-CH2CH2CH2OCHO, O-formyl 4-hydroxybutanal]",+,,,
O=CCCc1ccco1,+,-,,
